These are literature values, as cited in patent US12448600B2, “Extraction of antimethanogenic compounds” (priority 2023, dated 2025).

SMILES strings stand for the structures. Where two headings read alike, the source gives them in different places.

For series [1] the following is noted: pure form.
The mark [2] stands for this setting: 20° C., cell prints mmHg under a kPa head.

For `ClC(Cl)Br` [Bromodichloromethane], the Vapor pressure in series [1] (20° C.) was 6.6 kPa. `CF` [Methyl fluoride]: the Vapor pressure in series [1] (at 21° C.) was 3300 at 21 °C kPa. `ClC=C(Cl)Cl` [Trichlorethylene]: in series [1] (20° C.), the Vapor pressure is 7.8 kPa.

With `CBr` [Methyl bromide], the Vapor pressure in series [1] (setting [2]) is recorded as 1893 mmHg. Take `BrC(Br)Br` [Bromoform]: the Vapor pressure in series [1] (20° C.) is 0.67 kPa. Take `CI` [Methyl iodide]: the Vapor pressure in series [1] (20° C.) is on record as 50 kPa.

As for `BrCBr` [Dibromomethane], the Vapor pressure in series [1] (20° C.) is 4.7 kPa.

As to `O=[N+]([O-])OCCCO` [3-NOP, 3-nitrooxypropanol], the “Reduction in CH4 production” value in the series on CH4 production (cows, twice daily dosing, 80 mg per kg dry matter intake, 3 hours post-administration) is 29%. Moreover, in the series on CH4 production (single dose), the “Reduction in methane emissions” value was below 30% and the “Time the reduction in methane emissions is maintained” value was 3 to 4 h.

In the case of `IC(I)I` [Iodoform], the Vapor pressure in series [1] (setting [2]) is given as 0.04 mmHg.

Regarding `ClC(Cl)Cl` [Chloroform], the Vapor pressure in series [1] (setting [2]) is 212 mmHg. As to `FC(F)F` [Fluoroform], the Vapor pressure in series [1] (20° C.) was 4000 kPa.
